In patent publication US20260092054A1, “FUSED RING COMPOUND AND PHARMACEUTICAL CONTAINING SAME” (KAKEN PHARMACEUTICAL CO., LTD., priority 2022, published 2026) one finds inhibition and IC50 data, which are given here for 27 compounds.

Test [1] concerns human STAT6. Nature of the test: Human STAT6 dependent reporter activity (IL-4 stimulated STAT6 reporter assay using STAT6-HEK293 cells). The settings on record: Homo sapiens, IL-4 stimulation, luciferase activity, read-out: Inhibition rate (%); for inhibition at 0.1 µM: compound 0.1 μmol/L; for inhibition at 1 µM: compound 1 μmol/L. Type of test: cell-based. On the procedure: Test Example 2: Measurement of Human STAT6 Dependent Reporter Activity
1) Construction of Human STAT6-HEK293 Cells
HEK 293 cells maintenance cultured by [Penicillin-Streptomycin (Thermo Fisher Scientific) and FBS, 1 vol % and 10 vol % respectively added to DMEM high glucose (Thermo Fisher Scientific)](manufactured by ATCC) were collected, and suspended in 10 mL of 0.5% BSA/PBS. 1×10^6 cells were collected, the supernatant was removed by centrifuging, and the cells were suspended in 100 μL of Nucleofector solution V (manufactured by Lonza K.K.). 2 μg of STAT6 vector [plasmid DNAs incorporating human STAT6 sequences in pcDNA3.1 (Invitrogen)] was added, and the STAT6 vector was introduced into the HEK293 cells using the program Q-001 initially registered in the Nucleofector®2b. A cell line (STAT6-HEK293 cells) consistently expressing STAT6 was acquired by selecting resistant cells in a medium containing Geneticin® (manufactured by Thermo Fisher Scientific). 2) STAT6 reporter assay using STAT6-HEK293 cells 3×10^6 STAT6-HEK293 cells maintained in assay medium [culture medium supplemented with 1 vol % Geneticin®] were harvested and seeded in a 10 cm dish. 3 μg of a STAT6 reporter vector [plasmid in which a sequence containing a STAT6 binding sequence and a C/EBP binding sequence in tandem was incorporated into pGL4.27 (manufactured by Promega Corporation)] and 9 μL of FuGENE® HD transfection reagent (manufactured by Promega Corporation) were added to 500 μL of Opti-MEM® (manufactured by Thermo Fisher Scientific) to prepare transfection solutions. The transfection solution was vortexed and left to stand for about 5 minutes, then added dropwise to the STAT6-HEK293 cells, which were then cultured overnight in a C02 incubator to produce STAT6 reporter cells.
The prepared STAT6 reporter cells were seeded on B&W isoplate-96 TC (PerkinElmer Japan Co., Ltd.) (3×10^4 cells/50 μL/well) and cultured overnight in a C02 incubator (37° C., 5% C02). 50 μL of assay medium was added to each well instead of the STAT6 reporter cells. The compound addition solution was prepared by diluting the DMSO solution of the example compound 250-fold using the assay medium. 20 μL of compound addition solution or 0.4 vol % DMSO-containing assay medium was added to the plate, and the plate was then cultured in a CO2 incubator for 1 hour. 10 μL of 80 ng/mL human IL-4 solution (Peprotech) or assay medium was added to each well, and the cells were cultured in a CO2 incubator for 6 hours.
STAT6 reporter activity was measured using the Bright-Glo® Luciferase Assay System (Promega). 100 μL of Bright-Glo® reagent was added to each well, and luciferase activity was measured using Infinite® F500. The inhibition rate of each Example compound was calculated by the following formula using the luciferase activity value (G) when no Example compound was added and stimulation with IL-4 was performed, the luciferase activity value (H) when no Example compound was added and stimulation with IL-4 was not performed, and the luciferase activity value (I) when each Example compound was treated and stimulation with IL-4 was performed.
Note that the viable cell rate under each condition was 70% or more, and it was determined that the luciferase activity inhibitory activity of each example compound was appropriately evaluated.
On the technique in general: Reporter assays use an easily measured gene product as a stand-in for the process of interest.

For test [2], the target named is T1, human STAT6/pIL-4Rα (Homo sapiens, UniProt P42226).
T1 construct: histidine tag
T1 sequence (P42226 123-658): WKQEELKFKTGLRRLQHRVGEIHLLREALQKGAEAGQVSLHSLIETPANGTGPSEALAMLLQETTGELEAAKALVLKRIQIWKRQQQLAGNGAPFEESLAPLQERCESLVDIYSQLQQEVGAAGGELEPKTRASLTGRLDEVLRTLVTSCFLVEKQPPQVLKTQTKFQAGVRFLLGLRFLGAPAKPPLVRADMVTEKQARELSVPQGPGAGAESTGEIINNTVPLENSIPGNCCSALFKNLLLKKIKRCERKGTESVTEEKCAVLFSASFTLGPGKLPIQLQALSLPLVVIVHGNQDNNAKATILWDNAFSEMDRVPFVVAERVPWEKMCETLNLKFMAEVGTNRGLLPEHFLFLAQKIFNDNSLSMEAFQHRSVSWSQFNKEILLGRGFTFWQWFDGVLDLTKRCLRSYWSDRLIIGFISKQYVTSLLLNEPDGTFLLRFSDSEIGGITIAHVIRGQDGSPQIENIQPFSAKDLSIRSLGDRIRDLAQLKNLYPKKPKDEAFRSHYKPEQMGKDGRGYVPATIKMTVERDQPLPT
Nature of the test: Binding inhibitory activity between human STAT6/pIL-4Rα by fluorescence polarization method. The settings on record: rhSTAT6 (123-658) / FAM-pIL-4Rα peptide. On the procedure:
Test Example 1: Measurement of Binding Inhibitory Activity Between Human STAT6/pIL-p 4Rα by Fluorescence Polarization Method
1) Construction of Histidine Tag-Fused Recombinant Human STAT6 (123 to 658 Region)
A histidine tag-fused recombinant human STAT6 (hereinafter referred to as rhSTAT6) expression vector [plasmid DNA in which a nucleic acid sequence containing human STAT6 (123-658 region) was inserted into a pET28a(+) vector (Novagen)] was inserted into E. coli, and the cells were cultured overnight under culturing conditions at 17° C. with IPTG treatment. After disrupting E. coli with a high-pressure homogenizer (EmulsiFlex-C3, manufactured by AVESTIN, Inc.), affinity purification using Ni-NTA agarose (manufactured by Qiagen), cation exchange chromatography using HiTrap® CM-FF (manufactured by GE healthcare), and gel filtration chromatography using Superdex® 200 10/300GL (manufactured by GE healthcare) were performed to obtain rhSTAT6.
2) Measurement of Binding Inhibitory Activity Between Human STAT6/pIL-4Rα by Fluorescence Polarization Method
A DMSO solution of the example compound was diluted with an assay buffer [for example, a buffer containing 50 mmol/L NaCl, 10 mmol/L HEPES (pH 7.0), 1 mmol/L DTT, 1 mmol/L EDTA, and 0.01 vol % NP-40, and the like] to prepare a compound-added solution. The DMSO concentration in the compound addition solution was adjusted to 1 or 2 vol %. 10 μL of the compound addition solution and an assay buffer containing 1 or 2 vol % DMSO were added to each well of a 384-well plate. 5 μL of an assay buffer solution containing rhSTAT6 (rhSTAT6 concentration: for example, 1 μmol/L) or an assay buffer was added to each well of a 384-well plate. After leaving the plate at room temperature for 30 minutes in the dark, 5 μL of an assay buffer solution (FAM-pIL-4Rp concentration: for example, 80 nmol/L) containing FAM-labeled phosphorylated IL-4Rα peptide (sequence: FAM-Ala-pTyr-Lys-Pro-Phe-Gln-Asp-Leu-IIe-NH2) (hereinafter, FAM-pIL-4Rp) or an assay buffer containing 2 vol % DMSO was added to each well of the 384-well plate. The mixture was left to stand at room temperature for 30 minutes in the dark, and then centrifuged (200 g, 1 minute, room temperature). Fluorescence polarization values were measured using Infinite (registered trademark) F500 (manufactured by Tecan Japan Co., Ltd.) (Excitation: 485 nm, Emission: 535 nm). The inhibition rate of each Example compound was calculated according to the following formula using the fluorescence polarization value (A) when rhSTAT6 and FAM-pIL-4Rp were added without adding the Example compound, the fluorescence polarization value (B) when FAM-pIL-4Rp was added without adding the Example compound and rhSTAT6, and the fluorescence polarization value (C) when each Example compound, rhSTAT6, and FAM-pIL-4Rp were added.
In the evaluation of each example compound, the 50% inhibitory concentration (IC50) of each example compound was calculated from a linear function equation of a straight line connecting two points sandwiching 50%.
A general note: Polarisation of emitted light reports the rotation of a fluorescent probe.

Broadly, the inhibition is the drop in the measured response relative to a control, in per cent. What is called IC50 is the concentration at which inhibition is half-maximal. On to `CCn1c(-c2ccc(-n3cnn(C)c3=O)cc2)cc2ccnc(C(=O)Nc3ccc(F)c(C(N)=O)c3)c21` [Ex. 25], for which, in test [1], the inhibition at 0.1 µM came out at 64% and the inhibition at 1 µM was found to be 97%. This compound returned an IC50 in test [2] of 0.28 µM. `CCn1c(-c2ccc(N3C(=O)C(C)CC3C)cc2)cc2cc(C(F)(F)F)cc(C(=O)Nc3cccc(C(N)=O)c3)c21` (stereo not shown) [Ex. 159]: in test [1], the inhibition at 0.1 µM was found to be 50% and the inhibition at 1 µM stood at 95%. Further, in test [2], the IC50 amounted to 0.53 µM.

Turning to `Cc1nn(C)c(=O)n1-c1ccc(-c2cc3ccnc(C(=O)Nc4cccc(C(N)=O)c4)c3n2CC2CCC2)cc1` [Ex. 120], the inhibition at 0.1 µM in test [1] came to 74%. In test [2], this compound yielded an IC50 of 0.5 µM. On to `COCCn1c(-c2ccc(-n3c(C)nn(C)c3=O)cc2)cc2cc(C(F)(F)F)cc(C(=O)Nc3ccnn3C)c21` [Ex. 80], for which, in test [1], the inhibition at 0.1 µM came to 4% and the inhibition at 1 µM is 61%. In addition, the IC50 in test [2] worked out at 0.4 µM. Take `COCCn1c(-c2ccc(-n3c(C)nn(C)c3=O)cc2)cc2cc(C(F)(F)F)cc(C(=O)Nc3cc[nH]n3)c21` [Ex. 81]: the IC50 in test [2] stood at 2.27 µM. Compound `COCCn1c(-c2ccc(N(C)C(C)=O)cc2)nc2cc(C3CC3)cc(C(=O)Nc3cccc(C(N)=O)c3)c21` [Ex. 208] had an IC50 in test [2] of 2.08 µM. Consider `CCn1c(-c2ccc(-n3ccccc3=O)cc2)nc2cc(C(F)(F)F)cc(C(=O)Nc3cccc(C(N)=O)c3C)c21` [Ex. 10], for which, in test [2], the IC50 was found to be 3.26 µM. Turning to `C/C=C/c1cc(C(=O)Nc2cccc(C(N)=O)c2)c2c(c1)nc(-c1ccc(N(C)C(C)=O)cc1)n2CCOC` [Ex. 203], in test [2], the IC50 worked out at 7.06 µM.

In test [2], `C=Cc1cc(C(=O)Nc2cccc(C(N)=O)c2)c2c(c1)nc(-c1ccc(N(C)C(C)=O)cc1)n2CCOC` [Ex. 207] displayed an IC50 of 2.95 µM. This IC50 lies about 2.4-fold lower than the previous one.

In test [2], `COCCn1c(-c2ccc(N(C)C(C)=O)cc2)nc2cc(C3CCCC3)cc(C(=O)Nc3cccc(C(N)=O)c3)c21` [Ex. 212] gave an IC50 of 9.03 µM. On to `CCn1c(-c2ccc3c(c2)CCN(C(C)=O)C3)nc2cc(C(F)(F)F)cc(C(=O)Nc3cccc(C(N)=O)c3)c21` [Ex. 3], for which, in test [2], the IC50 was found to be 2.28 µM. This IC50 lies about 4-fold lower than the previous one. In turn, `CCn1c(-c2ccc(-n3c(C)nn(C)c3=O)cc2)cc2cc(C(F)(F)F)cc(C(=O)Nc3ccc(CNC(C)=O)cc3)c21` [Ex. 116] gave an IC50 in test [2] of 2.07 µM. Same read-out and setting: in the case of `COCCn1c(-c2ccc(-n3c(C)nn(C)c3=O)cc2)cc2cc(C(F)(F)F)cc(C(=O)Nc3cccc(C(=O)O)n3)c21` [Ex. 184] it was 0.27 µM; in that of `CCn1c(-c2ccc(-n3cnn(C)c3=O)cn2)cc2cc(C(F)(F)F)cc(C(=O)Nc3ccc(F)c(C(N)=O)c3)c21` [Ex. 64], 2.62 µM; in that of `CCn1c(-c2ccc(-n3c(C)nn(C)c3=O)cc2)cc2cc(F)cc(C(=O)Nc3cccc(C(N)=O)c3F)c21` [Ex. 60], 0.47 µM. On the same count and under the same terms, in the case of `COCCn1c(-c2ccc(N(C)C(C)=O)cc2)nc2cc(-c3ccccc3)cc(C(=O)Nc3cccc(C(N)=O)c3)c21` [Ex. 209] it was 6.6 µM. In test [2], `COCCn1c(-c2ccc(-n3c(C)nn(C)c3=O)cc2)cc2cc(C(F)(F)F)cc(C(=O)Nc3ccc(F)cc3)c21` [Ex. 53] had a 50% inhibitory concentration (IC50) of 3.97 µM. On the same count and under the same terms, in the case of `Cc1nn(C)c(=O)n1-c1ccc(-c2cc3cc(C(F)(F)F)cc(C(=O)Nc4ccc(F)c(C(N)=O)c4)c3n2C)cc1` [Ex. 55] it was 2.57 µM; in that of `COCCn1c(-c2ccc(-n3c(C)nn(C)c3=O)cc2)cc2cc(C(F)(F)F)cc(C(=O)Nc3cccnn3)c21` [Ex. 87], 1 µM; in that of `COCCn1c(-c2ccc(N(C)C(C)=O)cc2)nc2cc(COC)cc(C(=O)Nc3cccc(C(N)=O)c3)c21` [Ex. 215], 2.94 µM.

Compound `CCn1c(-c2ccc(-n3c(C)nn(C)c3=O)cc2)cc2cccc(C(=O)Nc3cccc(C(N)=O)c3F)c21` [Ex. 58] showed an IC50 in test [2] of 0.55 µM. In test [2], `CCn1c(-c2ccc(-n3c(C)nn(C)c3=O)cc2)cc2ccnc(C(=O)Nc3cccc(C(N)=O)c3)c21` [Ex. 82] had an IC50 of 1.14 µM. This IC50 is about 2.1-fold higher than that of the compound before.

`CCn1c(-c2ccc(N3C(=O)C(C)CC3C)cc2)nc2cc(C(F)(F)F)cc(C(=O)Nc3cccc(C(N)=O)c3)c21` (single isomer, unassigned) [Ex. 13] returned a half-maximal inhibitory concentration (IC50) in test [2] of 9.09 µM. Compound `CC1CC(C)N(c2ccc(-c3cc4ccnc(C(=O)Nc5cccc(C(N)=O)c5F)c4n3CC3(C#N)CC3)cc2)C1=O` (single isomer, unassigned) [Ex. 224] yielded an IC50 in test [2] of 1.59 µM.

Take `COCCn1c(-c2ccc(-n3c(C)nn(C)c3=O)cc2)cc2cc(C(F)(F)F)cc(C(=O)Nc3cccc(C(=O)Nc4ccn(C)n4)c3)c21` [Ex. 117]: in test [2], the IC50 is 0.32 µM. In the case of `CCn1c(-c2ccc(-n3c(C)nn(C)c3=O)nn2)cc2cc(C(F)(F)F)cc(C(=O)Nc3ccc(F)c(C(N)=O)c3)c21` [Ex. 128], in test [2], the IC50 came out at 0.57 µM.

In test [2], `COCCn1c(-c2ccc(-n3c(C)nn(C)c3=O)cc2)cc2cc(C(F)(F)F)cc(C(=O)Nc3cccc(C(=O)O)c3)c21` [Ex. 162] returned an IC50 of 0.3 µM.
